Assays:
[1] = molecular target: T1, recombinant human RPE65 and LRAT (visual cycle isomerase) (Homo sapiens, UniProt Q16518); test: Human in vitro isomerase inhibition assay; format: biochemical
T1 construct: expressed in transfected cells; host or cells: HEK293 cell clone (homogenate); CRALBP made in E. coli TOP10
T1 sequence (Q16518 2-533 limits assumed): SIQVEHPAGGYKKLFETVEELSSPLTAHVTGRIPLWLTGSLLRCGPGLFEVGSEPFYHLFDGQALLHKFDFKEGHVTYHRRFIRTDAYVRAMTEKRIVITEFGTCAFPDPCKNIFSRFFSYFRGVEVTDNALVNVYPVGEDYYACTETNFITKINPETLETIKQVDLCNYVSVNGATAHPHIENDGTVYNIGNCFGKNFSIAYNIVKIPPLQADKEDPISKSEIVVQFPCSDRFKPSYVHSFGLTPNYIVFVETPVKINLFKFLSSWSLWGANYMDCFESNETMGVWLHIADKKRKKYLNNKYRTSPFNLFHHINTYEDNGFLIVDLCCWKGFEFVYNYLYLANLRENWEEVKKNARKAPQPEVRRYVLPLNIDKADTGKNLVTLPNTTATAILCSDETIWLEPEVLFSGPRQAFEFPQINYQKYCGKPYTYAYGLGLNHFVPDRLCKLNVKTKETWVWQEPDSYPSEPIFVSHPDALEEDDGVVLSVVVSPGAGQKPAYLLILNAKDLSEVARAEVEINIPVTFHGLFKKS
Method: The capability of sulphur-linked compounds to inhibit the activity of a visual cycle isomerase was determined in vitro either in a human or bovine-based assay system.
Recombinant human apo cellular retinaldehyde-binding protein (CRALBP) was cloned and expressed according to standard methods in the molecular biology art (see Crabb et al., Protein Science 7:746-57 (1998); Crabb et al., J. Biol. Chem. 263:18688-92 (1988)). Briefly, total RNA was prepared from confluent ARPE19 cells (American Type Culture Collection, Manassas, Va.), cDNA was synthesized using an oligo(dT)12-18 primer, and then DNA encoding CRALBP was amplified by two sequential polymerase chain reactions (see Crabb et al., J. Biol. Chem. 263:18688-92 (1988); Intres, et al., J. Biol. Chem. 269:25411-18 (1994); GenBank Accession No. L34219.1). The PCR product was sub-cloned into pTrcHis2-TOPO TA vector according to the manufacturer's protocol (Invitrogen Inc., Carlsbad, Calif.; catalog no. K4400-01), and then the sequence was confirmed according to standard nucleotide sequencing techniques. Recombinant 6×His-tagged human CRALBP was expressed in One Shot TOP 10 chemically competent E. coli cells (Invitrogen), and the recombinant polypeptide was isolated from E. coli cell lysates by nickel affinity chromatography using nickel (Ni) Sepharose XK16-20 columns for HPLC (Amersham Bioscience, Pittsburgh, Pa.; catalog no. 17-5268-02). The purified 6×His-tagged human CRALBP was dialyzed against 10 mM bis-tris-Propane (BTP) and analyzed by SDS-PAGE. The molecular weight of the recombinant human CRALBP was approximately 39 kDal.
The concentration dependent effect of the compounds disclosed herein on the retinol isomerization reaction were evaluated with a recombinant human enzyme system. […] A homogenate of HEK293 cell clone expressing recombinant human RPE65 and LRAT were the source of the visual enzymes, and exogenous all-trans-retinol (about 20 μM) was used as the substrate. Recombinant human CRALBP (about 80 ug/mL) was added to enhance the formation of 11-cis-retinal. The 200 μL Bis-Tris Phosphate buffer (10 mM, pH 7.2) based reaction mixture also contains 0.5% BSA, and 1 mM NaPPi. In this assay, the reaction was carried out at 37° C. in duplicates for one hour and was terminated by addition of 300 μL methanol. The amount of reaction product, 11-cis-retinol, was measured by HPLC analysis following Heptane extraction of the reaction mixture. […] The ability of the compounds disclosed herein to inhibit isomerization reaction is quantified and the respective IC50 value is determined. Table 2 summarizes the IC50 values of all the compounds of the present disclosure. […] The production of 11-cis-retinol was measured at different doses of compound administration.

isomerase = molecular target: T2, isomerase (Mus musculus, UniProt Q91ZQ5); test: In vivo murine isomerase assay; conditions: oral, mice, 11-cis-retinal (oxime) recovery after photobleaching
T2 construct: from tissue; host or cells: eye of living mice (CD-1; Balb/c also mentioned)
T2 sequence (Q91ZQ5 1-533): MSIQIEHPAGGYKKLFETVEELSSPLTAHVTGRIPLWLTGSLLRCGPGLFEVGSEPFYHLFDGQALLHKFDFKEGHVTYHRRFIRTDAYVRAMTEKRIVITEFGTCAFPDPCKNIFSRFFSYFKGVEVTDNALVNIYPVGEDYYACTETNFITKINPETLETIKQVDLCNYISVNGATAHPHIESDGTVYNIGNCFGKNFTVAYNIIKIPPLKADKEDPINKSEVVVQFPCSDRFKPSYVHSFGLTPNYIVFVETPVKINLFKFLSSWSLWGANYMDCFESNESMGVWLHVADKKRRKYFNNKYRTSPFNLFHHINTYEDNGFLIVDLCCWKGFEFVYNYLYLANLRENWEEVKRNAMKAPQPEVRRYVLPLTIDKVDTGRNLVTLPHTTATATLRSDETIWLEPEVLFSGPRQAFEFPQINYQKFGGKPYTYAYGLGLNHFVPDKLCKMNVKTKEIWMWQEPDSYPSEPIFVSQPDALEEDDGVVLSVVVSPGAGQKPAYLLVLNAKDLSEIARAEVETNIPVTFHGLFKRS
Method: The capability of sulphur-linked compounds to inhibit isomerase is determined by an in vivo murine isomerase assay. Brief exposure of the eye to intense light (“photobleaching” of the visual pigment or simply “bleaching”) is known to photo-isomerize almost all 11-cis-retinal in the retina. The recovery of 11-cis-retinal after bleaching can be used to estimate the activity of isomerase in vivo. Delayed recovery, as represented by lower 11-cis-retinal oxime levels, indicates inhibition of isomerization reaction. […] See also Deigner et al., Science, 244: 968-71 (1989); Gollapalli et al., Biochim Biophys Acta. 1651: 93-101 (2003); Parish, et al., Proc. Natl. Acad. Sci. USA, 14609-13 (1998); Radu, et al., Proc Natl Acad Sci USA 101: 5928-33 (2004).
About six-week old dark-adapted CD-1 (albino) male mice are orally gavaged with compound (0.01-25 mg/kg) dissolved in an appropriate amount of oil (about 100 μl corn oil containing 10% ethanol, at least five animals per group). Mice are gavaged with the sulphur-linked compounds described in the present disclosure. After about 2-24 hours in the dark, the mice are exposed to photobleaching of about 5,000 lux of white light for 10 minutes. The mice are allowed to recover for about 2 hours in the dark. The animals are then sacrificed by carbon dioxide inhalation. Retinoids are extracted from the eye and the regeneration of 11-cis-retinal is assessed at various time intervals.
All steps are performed in darkness with minimal redlight illumination (low light darkroom lights and red filtered flashlights for spot illumination as needed) (see, e.g., Maeda et al., J. Neurochem 85:944-956, 2003; Van Hooser et al., J Biol Chem 277:19173-82, 2002). After the mice are sacrificed, the eyes are immediately removed and placed in liquid nitrogen for storage.
The eyes are placed in about 500 μL of bis-tris propane buffer (10 mM, pH ˜7.3) and about 20 μL of 0.8M hydroxylamine (pH-7.3). The eyes are cut up into small pieces with small iris scissors and then thoroughly homogenized at 30000 rpm with a mechanical homogenizer (Polytron PT 1300 D) in the tube until no visible tissue remains. About […] of methanol and about 500 μL of heptane are added to each tube. The tubes are attached to a vortexer so that the contents are mixed thoroughly for about 15 minutes in room temperature. The organic phase is separated from the aqueous phase by centrifugation for about 10 min at 13K rpm, 4° C. 240 μL of the solution from the top layer (organic phase) is removed and transferred to clean 300 μl glass inserts in HPLC vials using glass pipette and the vials are crimped shut tightly.
The samples are analyzed on an Agilent 1100 HPLC system with normal phase column: SILICA (Beckman Coutlier, dp 5 μm, […]). The running method has a flow rate of 1.5 ml/min; solvent components are 15% solvent 1 (1% isopropanol in ethyl acetate), and 85% solvent 2 (100% hexanes). Loading volume for each sample is about 100 μl; detection wavelength is 360 nm. The area under the curve for 11-cis-retinal oxime is calculated by Agilent Chemstation software and recorded manually. Data processing is performed using Prizm software.
[…] control mice (no compound administered) are sacrificed fully dark-adapted and the eye retinoids analyzed. Light (bleached) control mice (no compound administered) are sacrificed and retinoids isolated and analyzed immediately after light treatment.
A dose response in vivo isomerase inhibition study is performed with the compounds of the present disclosure. Male or female mice (such as Balb/c mice) (at least about 8/group) are dosed orally with about 0.01 to 25 mg/kg of the compounds of HCl salts of the compounds in sterile water as solution, and photobleached about 4 hours after dosing. Recovery and retinoid analysis is performed as described above. Dark control mice are vehicle-only treated, sacrificed fully dark adapted without light treatment, and analyzed. […]

Row | SMILES | inhibition of 11-cis-retinol production [1] | % Inibition 0.3 mg/kg, 4 h (isomerase) [%] | % Inibition 1.0 mg/kg, 4 h (isomerase) [%]
1 | NCCC(O)c1cccc(SCC2CCCCC2)c1 (centres unmarked) [Example 8, 3-amino-1-(3-(cyclohexylmethylthio)phenyl)propan-1-ol] | – | – | −14.2
2 | NC/C=C/c1cccc(SCC2CCCCC2)c1 [Example 11, (E)-3-(3-(cyclohexylmethylthio)phenyl)prop-2-en-1-amine] | dose-dependent inhibition | – | –
3 | CCCCSc1cccc([C@H](O)CCN)c1 [Example 18, (R)-3-amino-1-(3-(butylthio)phenyl)propan-1-ol] | – | – | 68.6
4 | NCCC(O)c1cccc(SCC2(O)CCCCC2)c1 (centres unmarked) [Example 27, 1-((3-(3-amino-1-hydroxypropyl)phenylthio)methyl)cyclohexanol] | – | – | 14.8
5 | [2H]C([2H])(N)CC(O)c1cccc(SCC2CCCCC2)c1 (centres unmarked) [Example 45, 3-amino-1-(3-(cyclohexylmethylthio)phenyl)-3,3-dideuteropropan-1-ol] | – | – | 87.1
6 | [2H]C([2H])(Sc1cccc(C(O)CCN)c1)C1CCCCC1 (centres unmarked) [Example 49, 3-amino-1-(3-(cyclohexyldideuteromethylthio)phenyl)propan-1-ol] | – | – | −8.5
7 | [2H]C1([2H])C([2H])([2H])C([2H])([2H])C([2H])(CSc2cccc(C(O)CCN)c2)C([2H])([2H])C1([2H])[2H] (centres unmarked) [Example 53, 3-amino-1-(3-((perdeuterocyclohexyl)methylthio)phenyl)propan-1-ol] | – | – | −4.9

The next lines start with the values.

Row | inhibition of 11-cis-retinol production [1] | % Inibition 0.3 mg/kg, 4 h (isomerase) [%] | % Inibition 1.0 mg/kg, 4 h (isomerase) [%] | SMILES
8 | dose-dependent inhibition | 1.1 | −12.1 | NCCCc1cccc(S(=O)(=O)CC2CCCCC2)c1 [Example 5, 3-(3-(cyclohexylmethylsulfonyl)phenyl)propan-1-amine]
9 | – | 3.7 | 20.3 | NCCC(O)c1cccc(S(=O)(=O)CC2CCCCC2)c1 (centres unmarked) [Example 9, 3-amino-1-(3-(cyclohexylmethylsulfonyl)phenyl)propan-1-ol]
10 | – | – | 79.3 | NCCC(=O)c1cccc(S(=O)(=O)CC2CCCCC2)c1 [Example 10, 3-amino-1-(3-(cyclohexylmethylsulfonyl)phenyl)propan-1-one]
11 | dose-dependent inhibition | – | – | NC/C=C/c1cccc(S(=O)(=O)CC2CCCCC2)c1 [Example 14, (E)-3-(3-(cyclohexylmethylsulfonyl)phenyl)prop-2-en-1-amine]
12 | dose-dependent inhibition | – | 33.4 | NCC[C@@H](O)c1cccc(SCC2CCCCC2)c1 [Example 17, (R)-3-amino-1-(3-(cyclohexylmethylthio)phenyl)propan-1-ol]
13 | – | – | −1.6 | [2H]C([2H])(C1CCCCC1)S(=O)(=O)c1cccc(C(O)CCN)c1 (centres unmarked) [Example 50, 3-amino-1-(3-(cyclohexyldideuteromethylsulfonyl)phenyl)propan-1-ol]
